# Experimental data: patent publication EP0443559A2, “HIV protease inhibiting agents” (BIO-MEGA/BOEHRINGER INGELHEIM RESEARCH INC., priority 1990, dated 1991)
# How the values were obtained:
# HIV protease = HIV protease (Human immunodeficiency virus type 1 group M subtype B, UniProt P04585); experiment: biochemical
# Text: The procedure is based on the capacity of the test compound to inhibit enzymatic cleavage by HIV protease of a decapeptide (the substrate) having an amino acid sequence which includes a known HIV protease cleavage site of a HIV polyprotein; see H.G. Krausslich et al., Proc. Natl. Acad. Sci. USA, 86,807(1989).
# Recombinant HIV Protease HPLC Assay: Enzyme: HIV protease was expressed in E. coli [construct pBRT1 prt⁺, see W.G. Farmerie et al., Science, 236, 305 (1987)], according to the following protocol: Unless stated otherwise, all solutions are aqueous solutions.
# E. coli cells containing the pBRT1 prt⁺ plasmid were used to inoculate a seed culture media composed of Luria-Bertani Broth containing 100µg/mL of ampicillin. Flasks were incubated at 37° under agitation for 17 h. Production flasks containing sterile M9 broth, supplemented with 100µg/ml of ampicillin, were inoculated at a level of 1% (v/v) using the seed culture described above. Total volume in each production flask was 500 mL in a 2 L Erlenmeyer flask. Flasks were incubated at 37° under agitation until a cell concentration corresponding to an optical density (λ= 540 m) of 0.6 was reached (no dilution). This time span was routinely 3-4 h. Flasks were then supplemented with 5mM isopropylthiogalactoside (IPTG, Research Organics, Cleveland, Ohio, USA) and incubation was continued until the cell concentration reached an optical density of 0.2 at 16-fold dilution. Flasks were then supplemented with 1mM phenylmethylsulfonyl fluoride (PMSF) and rapidly chilled to 4°. The bacterial cells were recovered by centrifugation at 4°. The wet pellet was stored at -70°.
# All steps below were performed at 4° unless otherwise indicated. Thawed cells were mixed with buffer A [50 mM […] HCl(Tris-HCl, pH 7.4); 0.6 mM ethylenediaminetetraacetic acid (EDTA); 0.375 M NaCl, 0.2% Nonidet P-40 ^R (BDH Chemicals Ltd., Poole, UK); 1mM PMSF], at a ratio of one part cells to nine parts buffer A. Diatomaceous earth (Celite 545 ^R , John Manville, Lompoc, CA, USA) was added at a ratio of two parts to one part of wet cell weight. The resulting slurry was homogenized at high speed (ca. 20,000 rpm) on a Waring ^R industrial blender for 8 x 15 sec. pulses. Cell debris/Celite ^R was collected by centrifugation and the resulting pellet was extracted with 4.5 parts of buffer A to one part wet solids using the homogenization procedure described above. Supernatants from both homogenization steps were combined and soluble protein was precipitated by the addition of solid (NH₄)₂SO₄ to yield a final concentration of 75% saturation. This mixture was agitated for 60 min and the precipitate was recovered by centrifugation. The resulting pellet was suspended in buffer B [50mM Tris-HCl, pH 8; 30 mM NaCl; 1 mM DL-dithio-threitol (DTT); 1 mM EDTA; 1 mM PMSF; 10% glycerol], and dialyzed for 18h against the same buffer.
# An aliquot of the dialyzed extract containing 150 mg of the protein was loaded onto a Sephadex A25 ^R anion exchange column. (Pharmacia, Uppsala, Sweden) with bed dimensions of 70 cm length and 2.5 cm diameter. The sample was eluted isocratically with buffer B at a linear flow rate of 10 cm/h. Fractions containing HIV protease activity (see below for assay description) were combined, and soluble protein was precipitated by the addition of saturated aqueous (NH₄)₂SO₄ to yield a total (NH₄)₂SO₄ concentration of 85% saturation. Precipitated protein was removed by centrifugation and the resulting pellet was dissolved in buffer C [50 mM 2-(4-morpholino)ethanesulfonic acid (MES), pH 5.5; 150 mM NaCl; 1 mM DTT; 1 mM EDTA; 10% glycerol]. This preparation was dialyzed for 18h against buffer C, and then frozen at -70°. All crude extracts were purified by chromatography in aliquots containing 150 mg of protein in the same manner as described above. The final preparations from each batch were pooled, divided into 34µL aliquots and stored at -70°.
# HIV = conditions: at 20µg/mL; C8166 cells, H9/HTLV-IIIB, 72 h
# Description: The following protocol, used for screening antiviral effects of the compounds of formula 1, is adapted from a plaque assay utilizing HTLV-I transformed cells which was developed by Harada et al., supra. HTLV-I transformed cells are used in these assays because of the rapidity with which HIV will replicate in these cells. • 1. The test compound is dissolved in dimethylsulfoxide to a concentration of 5 mg/mL. The resultant solution can be stored at 4° until used. • 2. The resultant solution is diluted in RPMI 1640 (Gibco Laboratories, St. Lawrence, MA, USA) to four times (4x) the final concentration which is to be tested. Once diluted in RPMI 1640, the solution is used in the cell culture assay within 4 h. • 3. The 4x solution (50µL) is added to triplicate wells of a 96 well flat bottomed microtiter plate. RPMI 50µL also is added to control wells. • 4. C8166 cells (5 x 10⁻⁴) in 50 µL of HEPES-buffered RPMI 1640, 10% heat inactivated fetal calf serum (FCS), 12.5µL/ml gentamicin (complete media) are added to all wells. • 5. […] Infectious titer of virus stocks are as previously determined by end point dilution on C8166 cells. […] Plates are then removed and centers of syncytia are counted in each well by low power phase contrast light microscopy. […] Percent inhibition of syncytia formation is calculated by the formula: [formula]
Structure (SMILES),IC50 (HIV protease) [nM],inhibition of syncytia formation (HIV) [%]
"CC(=O)N[C@H](C(=O)N[C@H](CN[C@@H](CC(C)C)C(=O)N[C@H](C(=O)N[C@@H](COCc1ccccc1)C(N)=O)C(C)C)Cc1ccccc1)C(C)C [Example 22, Ac-Val-Pheψ[CH₂NH]Leu-Val-Ser(OBzl)-NH₂]",29,–
"CC[C@H](C)[C@H](NC(=O)[C@H](CCC(N)=O)NC(=O)[C@H](CC(C)(C)C)NC[C@H](Cc1ccccc1)NC(=O)[C@@H](NC(C)=O)C(C)C)C(N)=O [Example 21, Ac-Val-Pheψ[CH₂NH]Tba-Gln-Ile-NH₂]",720,–
"CC(=O)N[C@H](C(=O)N[C@@H](CC1CCCCC1)[C@@H](O)CC(=O)N[C@@H](CC(C)C)C(=O)N[C@@H](Cc1ccccc1)C(N)=O)C(C)C [Example 5, Ac-Val-ACHPA-Leu-Phe-NH₂]",280,97
"CC(=O)N[C@H](C(=O)N[C@@H](CC1CCCCC1)[C@@H](O)CC(=O)N[C@@H](CC(C)C)C(=O)N[C@@H](Cc1ccccc1)C(N)=O)C(C)(C)C [Example 11, Ac-Tbg-ACHPA-Leu-Phe-NH₂]",200,72
"CC[C@H](C)[C@H](NC(=O)[C@H](CCC(=O)O)NC(=O)[C@H](CC(C)C)NC[C@H](Cc1ccccc1)NC(=O)[C@@H](NC(C)=O)C(C)C)C(N)=O [Example 12, Ac-Val-Pheψ[CH₂NH]Leu-Glu-Ile-NH₂]",6.7,–
"CC(C)C[C@H](NC(=O)C[C@H](O)[C@H](CC1CCCCC1)NC(=O)[C@@H](NC(=O)CCc1ccc(OCC(=O)OCc2ccccc2)cc1)C(C)C)C(=O)N[C@@H](Cc1ccccc1)C(N)=O [Example 2, [4-(BzlOC(O)CH₂O)Ph]CH₂CH₂C(O)-Val-ACHPA-Leu-Phe-NH₂]",170,–
"CC[C@H](C)[C@H](NC(=O)[C@H](CCC(N)=O)NC(=O)[C@H](CC(C)C)NC[C@H](Cc1ccccc1)NC(=O)[C@@H](NC(=O)[C@H](C)O)C(C)C)C(N)=O [Example 19, [(S)-CH₃CH(OH)C(O)]-Val-Pheψ[CH₂NH]Leu-Gln-Ile-NH₂]",660,–
"CC(C)C[C@H](NC(=O)C[C@H](O)[C@H](CC1CCCCC1)NC(=O)[C@@H](NC(=O)[C@@H](O)CO)C(C)C)C(=O)N[C@@H](Cc1ccccc1)C(N)=O [Example 4, [(S)-HOCH₂CH(OH)C(O)]-Val-ACHPA-Leu-Phe-NH₂]",180,–
"CC[C@H](C)[C@H](NC(=O)[C@H](CCC(N)=O)NC(=O)[C@H](CC(C)C)NC[C@H](Cc1ccccc1)NC(=O)[C@@H](NC(C)=O)[C@@H](C)CC)C(N)=O [Example 16, Ac-Ile-Pheψ[CH₂NH]Leu-Gln-Ile-NH₂]",180,–
